The values below come from paper PMC6268061, “Investigation of the Biological Properties of (Hetero)Aromatic Thiosemicarbazones” (Molecules, 2012).

Holding throughout (assay): In vitro antifungal susceptibility, broth microdilution
Format in all cases: cell-based
On the technique in general: In broth dilution the organism is exposed to a series of concentrations in liquid medium.

Assay [1] has as its system Trichophyton mentagrophytes 445. The settings on record: read-out: MIC (IC50) TM.
The test system of assay [2] is Candida krusei ATCC 6258. The settings on record: Pichia kudriavzevii, read-out: MIC (IC80) CK.
Assay [3] deals with Candida albicans ATCC 44859. Conditions: read-out: MIC (IC80) CA.
For assay [4], the system named is Aspergillus fumigatus 231. Conditions: read-out: MIC (IC50) AF.
The subject of assay [5] is Absidia corymbifera 272. Conditions: read-out: MIC (IC50) AC.
Assay [6] relates to Candida tropicalis 156. Conditions: read-out: MIC (IC80) CT.
The mark [7] stands for this setting: Trichophyton mentagrophytes, 445, 72 h.
[8] abbreviates: Trichophyton mentagrophytes, 445, 120 h.
The mark [9] stands for this setting: Aspergillus fumigatus, 231, 24 h.
Where [10] appears, read: Aspergillus fumigatus, 231, 48 h.
The mark [11] stands for this setting: Lichtheimia corymbifera, 272, 24 h.
Setting [12] is: Lichtheimia corymbifera, 272, 48 h.

≈ marks a conversion by molar mass, not a printed value. Where two headings read alike, the source gives them in different places. Where only a bound is given, the exact number is not on record here.

Usually IC50 stands for the concentration at which inhibition is half-maximal. The MIC is the lowest concentration found to suppress growth.

In the case of `CN(C)C(=S)N/N=C/c1ccc(Cl)c(Cl)c1` [Compound 3h, (E)-2-(3,4-Dichlorobenzylidene)-N,N-dimethylhydrazinecarbothioamide], the IC50 is 31.2 µM in assay [1] (setting [7]); 62.5 µM in assay [1] (setting [8]); over 500 µM in assay [4] (setting [9]); over 500 µM in assay [4] (setting [10]); over 500 µM in assay [5] (setting [11]); over 500 µM in assay [5] (setting [12]). For the same molecule, the MIC in assay [2] (ATCC6258, 24 h) was found to be 500 µM (≈ 138 µg/mL); in assay [2] (ATCC6258, 48 h), 500 µM (≈ 138 µg/mL); in assay [3] (ATCC44859, 24 h), 15.6 µM (≈ 4.31 µg/mL); in assay [3] (ATCC44859, 48 h), 31.2 µM (≈ 8.63 µg/mL); in assay [6] (Candida tropicalis, 156, 24 h) it was 500 µM (≈ 138 µg/mL); in assay [6] (Candida tropicalis, 156, 48 h), 500 µM (≈ 138 µg/mL).
In the case of `NC(=S)N/N=C/c1ccc(Br)cc1` [Compound 3k, (E)-2-(4-Bromobenzylidene)hydrazinecarbothioamide], the IC50 in assay [1] (setting [7]), in assay [1] (setting [8]), in assay [4] (setting [9]), in assay [4] (setting [10]), in assay [5] (setting [11]) and in assay [5] (setting [12]) was over 500 µM each time. Moreover, the MIC in assay [2] (ATCC6258, 24 h) is over 500 µM; in assay [2] (ATCC6258, 48 h), over 500 µM; in assay [3] (ATCC44859, 24 h), 500 µM (≈ 129 µg/mL); in assay [3] (ATCC44859, 48 h), 500 µM (≈ 129 µg/mL); in assay [6] (Candida tropicalis, 156, 24 h) it was over 500 µM; in assay [6] (Candida tropicalis, 156, 48 h) it was over 500 µM.
Regarding `CN(C)C(=S)N/N=C/c1ccc(Br)cc1` [Compound 3m, (E)-2-(4-bromobenzylidene)-N,N-dimethylhydrazinecarbothioamide], the IC50 in assay [1] (setting [7]) was 62.5 µM; in assay [1] (setting [8]), 62.5 µM; in assay [4] (setting [9]), over 500 µM; in assay [4] (setting [10]) it was over 500 µM; in assay [5] (setting [11]), over 500 µM; in assay [5] (setting [12]), over 500 µM. In addition, the MIC in assay [2] (ATCC6258, 24 h) was over 500 µM; in assay [2] (ATCC6258, 48 h) it was over 500 µM; in assay [3] (ATCC44859, 24 h) it was 62.5 µM (≈ 17.9 µg/mL); in assay [3] (ATCC44859, 48 h), 250 µM (≈ 71.5 µg/mL); in assay [6] (Candida tropicalis, 156, 24 h) it was over 500 µM; in assay [6] (Candida tropicalis, 156, 48 h) it was over 500 µM.
